Laboratory results from article PMC3038857, “Using Nuclear Receptor Activity to Stratify Hepatocarcinogens” (PLoS ONE, 2011).

Assays:
CAR (NR1I3) [1] = target: T1, CAR (NR1I3) (Homo sapiens, UniProt Q14994); test: NVS_NR_hCAR_Agonist: Human CAR CITCO Agonist (cell-free HTS); assay type: biochemical; conditions: scale not given, looks like -log10 of molar active concentration, 0 = no activity
T1 sequence (Q14994 1-352): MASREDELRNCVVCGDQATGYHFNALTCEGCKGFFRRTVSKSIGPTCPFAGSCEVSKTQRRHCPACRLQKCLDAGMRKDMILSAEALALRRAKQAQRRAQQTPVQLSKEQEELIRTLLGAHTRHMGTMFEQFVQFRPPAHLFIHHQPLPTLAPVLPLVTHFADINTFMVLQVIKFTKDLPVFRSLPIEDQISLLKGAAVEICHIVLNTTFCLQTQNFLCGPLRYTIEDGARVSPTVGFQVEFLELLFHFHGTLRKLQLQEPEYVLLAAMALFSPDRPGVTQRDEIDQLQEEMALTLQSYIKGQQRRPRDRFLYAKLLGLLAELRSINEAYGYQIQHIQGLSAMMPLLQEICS
Excerpt: (§1) These are a collection of biochemical assays measuring binding constants and enzyme inhibition values. Chemicals were initially screened at a single concentration in duplicate wells at a concentration of 10 [drawing 63] M for cytochrome P-450 assays and 25 [drawing 64] M for all others. […] These assays were run by Caliper Life Sciences (Hanover, MD) under contract to EPA. Short assay descriptions are available at: http://www.caliperls.com/products/contract-research/in-vitro/.
(§2) Cell-free HTS Assays: A collection of biochemical assays measuring binding constants and enzyme inhibition values. […] These assays were run by Caliper Life Sciences (Hanover, MD) under contract to EPA. Short assay descriptions are available at http://www.caliperls.com/products/contract-research/in-vitro/. Values for all endpoints were imported into GeneData Screener (Basel, Switzerland) and normalised to solvent controls from the same plate as the tested compounds and expressed as percent of neutral control. Concentration-response curves were fit in GeneData Screener (Basel, Switzerland) Condeseo module using the Hill equation and AC50 values were determined. […] Detailed description of the methods, data and analysis methods for this dataset are described in a separate publication.

CAR (NR1I3) [2] = target: T1, CAR (NR1I3); test: ATG_CAR_TRANS: Factorial reporter gene assay (HepG2); assay type: cell-based; parameters: endogenous in cells; host or cells: HepG2
Procedure: (§3) A multiple reporter transcription unit (MRTU) library consisting of 48 transcription factor binding sites was transfected into the HepG2 human liver hepatoma cell line. In addition to the cis-acting reporter genes (CIS), a modification of the approach was used to generate a trans-system (TRANS) with a mammalian one-hybrid assay consisting of an additional 25 MRTU library reporting the activity of nuclear receptor super-family members. […] These assays were performed by Attagene Inc. (Morrisville NC) under contract to EPA.
(§4) In addition to the cis-acting reporter genes (CIS), a modification of the approach was used to generate a trans-system (TRANS) with a mammalian one-hybrid assay consisting of an additional 25 MRTU library reporting the activity of nuclear receptor super-family members. […] Chemicals were then tested in the CIS and TRANS assays at seven concentrations starting at the MTC and followed by three-fold serial dilutions. These assays were performed by Attagene Inc. (Morrisville NC) under contract to EPA. Detailed description of the methods, data and analysis methods for this dataset will be presented in a separate publication.

[3] = target: T2, PPARD (peroxisome proliferator-activated receptor delta) (Homo sapiens, UniProt Q03181); test: ATG_PPARd_TRANS: Factorial reporter gene assay (HepG2); assay type: cell-based; parameters: scale not given here; conditions: scale not given, looks like -log10 of molar active concentration, 0 = no activity
T2 construct: expressed in transfected cells; host or cells: HepG2
T2 sequence (Q03181 1-441): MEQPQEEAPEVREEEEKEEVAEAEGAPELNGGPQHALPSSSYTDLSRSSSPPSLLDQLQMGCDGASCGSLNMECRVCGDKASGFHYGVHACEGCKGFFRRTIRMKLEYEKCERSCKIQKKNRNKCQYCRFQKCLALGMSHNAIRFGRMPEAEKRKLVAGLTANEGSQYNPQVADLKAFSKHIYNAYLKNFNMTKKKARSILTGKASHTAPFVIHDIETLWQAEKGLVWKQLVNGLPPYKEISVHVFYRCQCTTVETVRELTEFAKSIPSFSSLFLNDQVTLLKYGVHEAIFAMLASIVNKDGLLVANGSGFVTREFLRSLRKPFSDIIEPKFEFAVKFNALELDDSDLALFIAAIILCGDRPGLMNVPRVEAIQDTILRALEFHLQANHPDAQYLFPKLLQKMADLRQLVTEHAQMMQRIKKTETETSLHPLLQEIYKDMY
Procedure: as §3, §4

[4] = target: T3, ESRRA (estrogen-related receptor alpha) (Homo sapiens, UniProt P11474); test: ATG_ERRa_TRANS: Factorial reporter gene assay (HepG2); assay type: cell-based; conditions: scale not given, looks like -log10 of molar active concentration, 0 = no activity
T3 construct: expressed in transfected cells; host or cells: HepG2
T3 sequence (P11474 1-423): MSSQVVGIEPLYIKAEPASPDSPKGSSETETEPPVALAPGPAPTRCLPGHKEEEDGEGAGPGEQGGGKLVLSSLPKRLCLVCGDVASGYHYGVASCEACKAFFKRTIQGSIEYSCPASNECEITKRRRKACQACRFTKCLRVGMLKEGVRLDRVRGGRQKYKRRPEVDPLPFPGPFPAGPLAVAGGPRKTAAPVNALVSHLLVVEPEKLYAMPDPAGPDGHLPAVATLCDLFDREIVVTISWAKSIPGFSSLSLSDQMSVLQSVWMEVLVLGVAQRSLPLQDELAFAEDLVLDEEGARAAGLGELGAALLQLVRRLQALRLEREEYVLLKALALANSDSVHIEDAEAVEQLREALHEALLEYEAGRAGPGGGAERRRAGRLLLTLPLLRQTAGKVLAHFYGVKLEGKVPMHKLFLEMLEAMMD
Procedure: as §3, §4

FXR (NR1H4) [5] = target: T4, FXR (NR1H4) (Homo sapiens, UniProt Q96RI1); test: ATG_FXR_TRANS: Factorial reporter gene assay (HepG2); assay type: cell-based; parameters: expressed in transfected cells; host or cells: HepG2; scale not given here; conditions: scale not given, looks like -log10 of molar active concentration, 0 = no activity
T4 sequence (Q96RI1 1-486): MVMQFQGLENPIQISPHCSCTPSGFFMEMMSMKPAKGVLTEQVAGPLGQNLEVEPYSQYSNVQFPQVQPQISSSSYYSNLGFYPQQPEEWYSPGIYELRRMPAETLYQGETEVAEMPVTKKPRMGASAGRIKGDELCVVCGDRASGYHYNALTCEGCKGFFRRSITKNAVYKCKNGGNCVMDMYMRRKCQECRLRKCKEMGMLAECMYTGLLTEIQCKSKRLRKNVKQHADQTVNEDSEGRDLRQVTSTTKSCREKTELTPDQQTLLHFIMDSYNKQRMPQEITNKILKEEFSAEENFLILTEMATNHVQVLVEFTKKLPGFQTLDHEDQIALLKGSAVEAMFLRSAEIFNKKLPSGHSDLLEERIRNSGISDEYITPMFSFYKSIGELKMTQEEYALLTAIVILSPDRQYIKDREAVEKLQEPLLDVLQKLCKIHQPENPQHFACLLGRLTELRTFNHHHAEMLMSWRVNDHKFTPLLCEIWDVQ
Procedure: as §3, §4

FXR (NR1H4) [6] = target: T4, FXR (NR1H4); test: NVS_NR_hFXR: Human FXR CDCA (cell-free HTS); assay type: binding; conditions: scale not given, looks like -log10 of molar active concentration, 0 = no activity
Excerpt: as §1, §2

[7] = HepG2, scale not given, looks like -log10 of molar active concentration, 0 = no activity

`C=CCOC(=O)C(C)(C)OC(=O)c1cc(-n2c(=O)cc(C(F)(F)F)n(C)c2=O)ccc1Cl` [r47] showed an NVS_NR_hCAR_Agonist (CAR (NR1I3) [1]) of 0, an ATG_CAR_TRANS (CAR (NR1I3) [2]; [7]) of 0 and an ATG_PPARd_TRANS [3] of 0. It also gave an ATG_ERRa_TRANS [4] of 0.

For `N#Cc1c(Cl)c(Cl)c(Cl)c(C#N)c1Cl` [r58], the NVS_NR_hCAR_Agonist (CAR (NR1I3) [1]) was 0, the ATG_CAR_TRANS (CAR (NR1I3) [2]; [7]) was 0 and the ATG_FXR_TRANS (FXR (NR1H4) [5]) was 0. It also gave an ATG_PPARd_TRANS [3] of 0 and an NVS_NR_hFXR (FXR (NR1H4) [6]) of 0.

In the case of `COC(=O)c1ccccc1CS(=O)(=O)NC(=O)Nc1nc(OC)cc(OC)n1` [r33], the NVS_NR_hCAR_Agonist (CAR (NR1I3) [1]) is reported as 0, the ATG_CAR_TRANS (CAR (NR1I3) [2]; [7]) is reported as 0 and the ATG_FXR_TRANS (FXR (NR1H4) [5]) is reported as 0. It also gave an ATG_PPARd_TRANS [3] of 0, an NVS_NR_hFXR (FXR (NR1H4) [6]) of 0 and an ATG_ERRa_TRANS [4] of 0.

For `COc1ccc(-c2ccccc2)cc1NNC(=O)OC(C)C` [r38], the NVS_NR_hCAR_Agonist (CAR (NR1I3) [1]) was 0, the ATG_CAR_TRANS (CAR (NR1I3) [2]; [7]) was 0 and the ATG_FXR_TRANS (FXR (NR1H4) [5]) was 0. For the same compound, the NVS_NR_hFXR (FXR (NR1H4) [6]) was 0 and the ATG_ERRa_TRANS [4] was 0.

Compound `CCSC(=O)N(CC(C)C)CC(C)C` [r49] has an NVS_NR_hCAR_Agonist (CAR (NR1I3) [1]) of 0, an ATG_CAR_TRANS (CAR (NR1I3) [2]; [7]) of 0 and an ATG_PPARd_TRANS [3] of 0. It also gave an ATG_ERRa_TRANS [4] of 0.

`COc1cc(Cl)c(OC)cc1Cl` [r57] showed an ATG_ERRa_TRANS [4] of 0.

Compound `CC(C)N1C(=O)N(c2ccccc2)CS/C1=N\C(C)(C)C` [r45] has an NVS_NR_hCAR_Agonist (CAR (NR1I3) [1]) of 0, an ATG_CAR_TRANS (CAR (NR1I3) [2]; [7]) of 0 and an ATG_PPARd_TRANS [3] of 0. For the same compound, the ATG_ERRa_TRANS [4] was 0.

For `COc1nc(C)nc(NC(=O)NS(=O)(=O)c2ccccc2Cl)n1` [r63], the NVS_NR_hCAR_Agonist (CAR (NR1I3) [1]) was 0, the ATG_CAR_TRANS (CAR (NR1I3) [2]; [7]) was 0 and the ATG_ERRa_TRANS [4] was 0.

`CC1=C(C(=O)Nc2ccccc2)SCCO1` [r53] showed an ATG_FXR_TRANS (FXR (NR1H4) [5]) of 0, an ATG_PPARd_TRANS [3] of 0 and an NVS_NR_hFXR (FXR (NR1H4) [6]) of 0. It also gave an ATG_ERRa_TRANS [4] of 0.

For `O=C1C2CC=CCC2C(=O)N1SC(Cl)(Cl)Cl` (stereo not drawn) [r51], the NVS_NR_hCAR_Agonist (CAR (NR1I3) [1]) was 0, the ATG_CAR_TRANS (CAR (NR1I3) [2]; [7]) was 0 and the ATG_PPARd_TRANS [3] was 0. It also gave an ATG_ERRa_TRANS [4] of 0.

`Cc1c(COC(=O)C2C(/C=C(\Cl)C(F)(F)F)C2(C)C)cccc1-c1ccccc1` (stereo not drawn) [r39] gave an NVS_NR_hCAR_Agonist (CAR (NR1I3) [1]) of 0, an ATG_CAR_TRANS (CAR (NR1I3) [2]; [7]) of 0 and an ATG_FXR_TRANS (FXR (NR1H4) [5]) of 0. The ATG_PPARd_TRANS [3] was 0 and the NVS_NR_hFXR (FXR (NR1H4) [6]) was 0.

`CCC(C)Nc1c([N+](=O)[O-])cc(C(C)(C)C)cc1[N+](=O)[O-]` (stereo not drawn) [r48] showed an ATG_PPARd_TRANS [3] of 0 and an ATG_ERRa_TRANS [4] of 0.

`CC(C)=CC1C(C(=O)OCc2coc(Cc3ccccc3)c2)C1(C)C` (stereo not drawn) [r280] showed an ATG_CAR_TRANS (CAR (NR1I3) [2]; HepG2 reporter) of 4.585.
